Assay [1] concerns HUV-EC-C cells. Description: HUV-EC-C Assay, aFGF (3H-thymidine incorporation). In kind it is cell-based, human. The note with it: read-out: HUV-EC-C (ATCC) aFGF. The text has this: (§1) IC50 refers to the amount (in micromoles, μM) of compound required to achieve 50% inhibition of the activity of the particular kinase being tested as compared to the activity of an untreated control.
(§2) The cellular/biologic assays described herein measure the amount of DNA made in response to activation of a test kinase, which is a general measure of a proliferative response. The general procedure for this assay is as follows: a compound is introduced to cells expressing the test kinase, either naturally or recombinantly, for some period of time after which, if the test kinase is a receptor, a ligand known to activate the receptor's activity is added. After incubation at least overnight, a DNA labeling reagent such as Bromodeoxy-uridine (BrdU) or 3H-thymidine is added. The amount of labeled DNA is detected with either an anti-BrdU antibody or by measuring radioactivity and is compared to control cells not contacted with a test compound.
(§3) The following protocol may also be used to measure a compound's activity against PDGF-R, FGF-R, VEGF, aFGF or Flk-1/KDR, all of which are naturally expressed by HUV-EC cells.
1. […]
A general note: Incorporation of labelled thymidine or its analogues reports DNA synthesis.

A further assay concerns the target T1, SRC (Gallus gallus, UniProt P00523).
T1 construct: made in house; host or cells: Schizosaccharomyces pombe SP200, pRSP expression plasmid; yeast from Courtneidge Laboratory (Sugen)
Briefly: Biochemical src assay--ELISA.
Description: as §1
g. Biochemical src assay--ELISA
This assay is used to determine src protein kinase activity measuring phosphorylation of a biotinylated peptide as the readout.
h. Anti-src (327) mab: Schizosaccharomyces Pombe is used to express recombinant Src (Superti-Furga, et al., EMBO J., 12:2625-2634; Superti-Furga, et al., […]., 14:600-605). S. Pombe strain SP200 (h-s leul.32 ura4 ade210) is grown as described and transformations are pRSP expression plasmids are done by the lithium acetate method (Superti-Furga, supra). Cells are grown in the presence of 1 μM thiamine to repress expression from the nmtl promoter or in the absence of thiamine to induce expression.
a. Preparation of src coated ELISA plate.
(§4) c. Kinase assay procedure.
2. Add 0.08 ml Kinase Reaction Mixture per well (containing 10 μl of 10× Kinase Buffer and 10 μM (final concentration) biotin-EEEYEEYEEEYEEEYEEEY per well diluted in water.
(§5) 3. Add 10 μl of compound diluted in water containing 10% DMSO and pre-incubate for 15 minutes at room temperature.
4. Start kinase reaction by adding 10 μl/well of 0.05 mM ATP in water (5 μM ATP final).
5. Shake ELISA plate for 15 min. at room temperature.
10. […]

The target in a further assay is T2, FLK-1R (Mus musculus, UniProt P35918).
T2 construct: expressed in transfected cells; host or cells: NIH3T3 C7#3 cells
T2 sequence (P35918 20-1345): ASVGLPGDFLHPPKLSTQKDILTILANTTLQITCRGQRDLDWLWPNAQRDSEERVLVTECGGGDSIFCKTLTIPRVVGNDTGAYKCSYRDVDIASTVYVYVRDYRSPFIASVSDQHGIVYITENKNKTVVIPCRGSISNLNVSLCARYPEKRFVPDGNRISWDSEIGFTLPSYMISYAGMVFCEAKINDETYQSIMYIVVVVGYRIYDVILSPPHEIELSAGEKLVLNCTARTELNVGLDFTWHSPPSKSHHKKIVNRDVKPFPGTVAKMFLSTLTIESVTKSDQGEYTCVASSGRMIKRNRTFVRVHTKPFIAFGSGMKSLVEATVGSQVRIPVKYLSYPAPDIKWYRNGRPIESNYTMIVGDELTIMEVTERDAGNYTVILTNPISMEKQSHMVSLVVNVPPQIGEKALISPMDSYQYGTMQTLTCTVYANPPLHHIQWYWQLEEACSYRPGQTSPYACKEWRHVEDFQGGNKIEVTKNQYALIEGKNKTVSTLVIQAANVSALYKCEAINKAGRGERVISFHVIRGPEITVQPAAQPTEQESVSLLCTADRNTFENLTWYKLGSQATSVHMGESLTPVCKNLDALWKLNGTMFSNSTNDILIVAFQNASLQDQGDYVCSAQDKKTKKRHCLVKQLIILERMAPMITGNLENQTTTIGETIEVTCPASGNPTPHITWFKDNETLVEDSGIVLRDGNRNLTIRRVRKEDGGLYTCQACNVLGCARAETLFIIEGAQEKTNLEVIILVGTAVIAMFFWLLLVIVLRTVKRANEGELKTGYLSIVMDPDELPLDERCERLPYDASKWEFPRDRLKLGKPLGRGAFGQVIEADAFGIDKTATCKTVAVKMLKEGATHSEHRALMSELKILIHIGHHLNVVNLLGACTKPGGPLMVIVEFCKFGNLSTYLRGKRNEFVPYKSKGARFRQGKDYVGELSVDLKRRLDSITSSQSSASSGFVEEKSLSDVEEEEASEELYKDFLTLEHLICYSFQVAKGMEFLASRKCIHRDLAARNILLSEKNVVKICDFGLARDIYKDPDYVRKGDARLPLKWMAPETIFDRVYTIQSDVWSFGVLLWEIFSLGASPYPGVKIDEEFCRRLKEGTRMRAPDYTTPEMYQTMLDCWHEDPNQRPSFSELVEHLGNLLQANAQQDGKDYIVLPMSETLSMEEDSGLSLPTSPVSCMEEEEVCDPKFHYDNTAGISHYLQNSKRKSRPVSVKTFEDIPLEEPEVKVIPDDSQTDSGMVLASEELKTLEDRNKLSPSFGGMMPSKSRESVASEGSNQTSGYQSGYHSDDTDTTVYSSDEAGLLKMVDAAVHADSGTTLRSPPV
Briefly: FLK-1 receptor kinase activity, cellular ELISA (NIH3T3 C7#3 cells, VEGF stimulated). It counts as cell-based. (ELISA stands for enzyme-linked immunosorbent assay.)

The test system of another assay is PDGFR. Description: PDGF-R ELISA (U1242 cells). It counts as cell-based. The method, then: as §1
(§6) The cellular/catalytic assays described herein are performed in an ELISA format. The general procedure is a follows: a compound is introduced to cells expressing the test kinase, either naturally or recombinantly, for some period of time after which, if the test kinase is a receptor, a ligand known to activate the receptor's activity is added. The cells are lysed and the lysate is transferred to the wells of an ELISA plate previously coated with a specific antibody recognizing the substrate of the enzymatic phosphorylation reaction. Non-substrate components of the cell lysate are washed away and the amount of phosphorylation on the substrate is detected with an antibody specifically recognizing phosphotyrosine compared with control cells that were not contacted with a test compound.
All cell culture media, glutamine, and fetal bovine serum can be purchased from Gibco Life Technologies (Grand Island, NY) unless otherwise specified. All cells are grown in a humid atmosphere of 90-95% air and 5-10% CO2 at 37° C. All cell lines are routinely subcultured twice a week and are negative for mycoplasma as determined by the Mycotect method (Gibco). […]

A further assay deals with FAK (Homo sapiens, UniProt Q05397). Briefly: FAK kinase inhibition. It counts as biochemical.
Chain of FAK (Q05397 whole entry, species assumed): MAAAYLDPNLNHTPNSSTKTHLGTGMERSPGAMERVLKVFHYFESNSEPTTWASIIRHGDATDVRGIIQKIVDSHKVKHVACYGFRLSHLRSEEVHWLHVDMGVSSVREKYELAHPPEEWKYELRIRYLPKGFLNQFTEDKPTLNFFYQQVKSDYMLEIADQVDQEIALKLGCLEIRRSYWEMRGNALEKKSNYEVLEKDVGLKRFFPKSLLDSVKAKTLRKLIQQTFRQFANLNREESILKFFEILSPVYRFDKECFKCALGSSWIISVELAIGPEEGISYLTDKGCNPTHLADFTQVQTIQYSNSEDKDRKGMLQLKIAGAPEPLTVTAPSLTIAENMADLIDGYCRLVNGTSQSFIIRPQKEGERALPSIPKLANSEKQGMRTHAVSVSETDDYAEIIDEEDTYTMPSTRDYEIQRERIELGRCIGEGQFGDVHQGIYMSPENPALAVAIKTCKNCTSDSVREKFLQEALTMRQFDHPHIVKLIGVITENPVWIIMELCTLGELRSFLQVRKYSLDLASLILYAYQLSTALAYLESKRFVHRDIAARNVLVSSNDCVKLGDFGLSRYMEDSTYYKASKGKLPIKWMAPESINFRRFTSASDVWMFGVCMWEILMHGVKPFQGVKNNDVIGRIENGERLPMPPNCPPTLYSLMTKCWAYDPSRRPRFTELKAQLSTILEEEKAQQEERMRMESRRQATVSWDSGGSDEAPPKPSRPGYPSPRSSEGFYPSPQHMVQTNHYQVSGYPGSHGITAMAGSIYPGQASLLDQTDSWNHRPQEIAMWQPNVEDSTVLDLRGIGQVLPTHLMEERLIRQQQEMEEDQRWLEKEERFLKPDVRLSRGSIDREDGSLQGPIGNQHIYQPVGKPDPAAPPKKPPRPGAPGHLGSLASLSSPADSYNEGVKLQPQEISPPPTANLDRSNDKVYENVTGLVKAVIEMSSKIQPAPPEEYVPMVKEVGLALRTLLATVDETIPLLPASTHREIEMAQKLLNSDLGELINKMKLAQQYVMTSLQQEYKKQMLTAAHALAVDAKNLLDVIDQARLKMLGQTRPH
Description: as §1

Another assay deals with T3, LCK (Homo sapiens, UniProt P06239).
T3 construct: made in house; host or cells: Schizosaccharomyces pombe SP200, pRSP expression plasmid
T3 sequence (P06239 whole entry, species assumed): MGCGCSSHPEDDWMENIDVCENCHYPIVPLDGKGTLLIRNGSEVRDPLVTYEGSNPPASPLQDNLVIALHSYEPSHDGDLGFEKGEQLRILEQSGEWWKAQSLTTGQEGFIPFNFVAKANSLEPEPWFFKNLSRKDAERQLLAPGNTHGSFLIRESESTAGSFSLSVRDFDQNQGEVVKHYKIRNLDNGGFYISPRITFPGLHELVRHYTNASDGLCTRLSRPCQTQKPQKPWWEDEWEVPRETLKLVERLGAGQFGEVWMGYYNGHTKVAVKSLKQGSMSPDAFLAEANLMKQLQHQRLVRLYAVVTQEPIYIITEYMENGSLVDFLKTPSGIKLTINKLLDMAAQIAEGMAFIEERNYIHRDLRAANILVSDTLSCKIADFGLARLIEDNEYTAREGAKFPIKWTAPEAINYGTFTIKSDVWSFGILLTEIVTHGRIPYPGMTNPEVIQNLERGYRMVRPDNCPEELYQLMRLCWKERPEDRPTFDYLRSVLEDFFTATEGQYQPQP
Description: Biochemical lck Assay--ELISA.
Description: as §1
h. Biochemical lck Assay--ELISA
This assay is used to determine lck protein kinase activities measuring phosphorylation of GST-.zeta. as the readout.
a. Yeast transformed with lck. Schizosaccharomyces Pombe is used to express recombinant Lck (Superti-Furga, et al., EMBO J, 12:2625-2634; Superti-Furga, et al., Nature Biotech., 14:600-605). S. Pombe strain SP200 (h-s leul.32 ura4 ade210) is grown as described and transformations with pRSP expression plasmids are done by the lithium acetate method (Superti-Furga, supra). Cells are grown in the presence of 1 μM thiamine […].
a. Preparation of Lck coated ELISA plate.
as §4
2. Add 0.08 ml Kinase Reaction Mixture per well (containing 10 μl of 10× Kinase Buffer and 2 μg GST-.zeta. per well diluted with water).
as §5
4. Start kinase reaction by adding 10 μl/well of 0.1 mM ATP in water (10 μM ATP final).
5. Shake ELISA plate for 60 min. at room temperature.
14. Develop with Turbo TMB.

The next assay has as its target T4, EGFR (Homo sapiens, UniProt P00533).
T4 construct: expressed in transfected cells; host or cells: NIH 3T3/C7 cell line
Description: EGF Receptor ELISA (NIH 3T3/C7 cells). In kind it is cell-based. The method, then:
as §1, §6
EGF Receptor kinase activity in cells genetically engineered to express human EGF-R can be measured as described below:
1. […]
12. The maximal phosphotyrosine signal is determined by subtracting the value of the negative controls from the positive controls. The percent inhibition of phosphotyrosine content for extract-containing wells is then calculated, after subtraction of the negative controls.

The test system of assay [2] is HUV-EC-C cells. Briefly: HUV-EC-C Assay, VEGF (3H-thymidine incorporation). In kind it is cell-based, human. Conditions: read-out: HUV-EC-C (ATCC) VEGF.
Description: as §1, §2, §3
1. […]

Some results are limits rather than exact numbers.

T4 sequence (P00533 25-1210): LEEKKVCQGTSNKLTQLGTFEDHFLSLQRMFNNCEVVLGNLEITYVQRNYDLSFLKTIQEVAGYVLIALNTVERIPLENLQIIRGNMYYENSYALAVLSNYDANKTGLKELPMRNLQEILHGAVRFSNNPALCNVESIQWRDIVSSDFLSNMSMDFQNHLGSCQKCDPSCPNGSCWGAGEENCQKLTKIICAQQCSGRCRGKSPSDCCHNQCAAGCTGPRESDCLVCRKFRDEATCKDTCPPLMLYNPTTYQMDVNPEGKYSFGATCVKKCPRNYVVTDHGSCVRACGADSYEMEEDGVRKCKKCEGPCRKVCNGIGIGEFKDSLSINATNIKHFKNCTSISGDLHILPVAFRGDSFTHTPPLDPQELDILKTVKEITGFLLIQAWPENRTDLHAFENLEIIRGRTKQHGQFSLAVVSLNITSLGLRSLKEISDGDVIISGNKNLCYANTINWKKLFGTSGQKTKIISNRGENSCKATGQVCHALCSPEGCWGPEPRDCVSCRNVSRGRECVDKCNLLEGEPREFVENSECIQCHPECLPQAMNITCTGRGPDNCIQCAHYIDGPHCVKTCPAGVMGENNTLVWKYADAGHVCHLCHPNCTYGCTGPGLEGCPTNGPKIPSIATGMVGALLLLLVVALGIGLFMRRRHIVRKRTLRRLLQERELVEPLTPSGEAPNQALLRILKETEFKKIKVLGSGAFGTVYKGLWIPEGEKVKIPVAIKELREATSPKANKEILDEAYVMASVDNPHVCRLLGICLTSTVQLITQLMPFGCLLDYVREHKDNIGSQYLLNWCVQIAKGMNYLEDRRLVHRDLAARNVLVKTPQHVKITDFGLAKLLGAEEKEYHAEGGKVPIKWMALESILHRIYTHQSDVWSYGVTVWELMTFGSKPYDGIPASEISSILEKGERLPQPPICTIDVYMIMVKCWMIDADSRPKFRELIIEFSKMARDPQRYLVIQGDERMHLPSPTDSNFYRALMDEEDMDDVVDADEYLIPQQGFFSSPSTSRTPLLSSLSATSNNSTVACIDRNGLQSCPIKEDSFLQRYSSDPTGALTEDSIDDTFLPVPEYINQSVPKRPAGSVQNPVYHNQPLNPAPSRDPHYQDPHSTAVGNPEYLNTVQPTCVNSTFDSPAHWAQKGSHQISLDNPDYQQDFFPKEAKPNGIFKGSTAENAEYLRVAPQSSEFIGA

`NS(=O)(=O)c1ccc2c(c1)C(=CC1=CC3=C(CCCC3)C1)C(=O)N2` [3-(4,5,6,7-tetrahydroinden-2-methylidenyl)-5-[aminosulfonyl]-2-indolinone]: the IC50 was 2400 nM with HUV-EC-C cells [1] (Homo sapiens); 3300 nM in the assay on HUV-EC-C cells [1]; 800 nM on SRC; > 100000 nM against FLK-1R; 1000 nM in the assay with PDGFR; > 10000 nM on FAK. The IC50 was 700 nM against LCK, > 100000 nM against EGFR, 650 nM in the assay on HUV-EC-C cells [2] (Homo sapiens) and 1070 nM with HUV-EC-C cells [2].

As for `CN(C)S(=O)(=O)c1ccc2c(c1)C(=CC1=CC3=C(CCCC3)C1)C(=O)N2` [3-(4,5,6,7-tetrahydroinden-2-methyldenyl)-5-[N,N-dimethylaminosulfonyl]2-indolinone], the IC50 against SRC is 100 nM; at FLK-1R it was > 100000 nM; in the assay with PDGFR, > 100000 nM; at FAK, > 10000 nM; at LCK, 500 nM; at EGFR it was > 100000 nM.

The values are drawn from US6130238A, “3-(cyclohexanoheteroarylidenyl)-2-indolinone protein tyrosine kinase inhibitors” (Sugen, Inc., priority 1998, dated 2000).
